In patent US7709463B2, “Idraparinux (SanOrg34006) for treatment of venous events in patients with deep venous thrombosis” (Sanofi-Aventis, priority 2002, dated 2010):

Assays:
Type in all cases: in vivo, human
[1] = tested on: patients with confirmed symptomatic proximal DVT; experiment: Composite clinical outcome assessed by CAC (recurrent DVT, symptomatic PE or unexplained death), phase II study
From the text: (§1) The study design is illustrated in FIG. 1.
(§2) Each treatment group was to consist of 130 patients, of which at least 100 patients eligible for inclusion in the Intent-To-Treat (ITT) group. Subjects in the SanOrg34006 treatment groups were to be followed-up during a four-week period after the final assessments.
(§3) Secondary efficacy parameters: change in thrombotic burden using a binary scale (i.e. deterioration versus no deterioration); change of CUS on a 3-point ordinal scale; change of PLS on a 3-point ordinal scale; the composite clinical outcome (non-fatal symptomatic PE and/or recurrent DVT, death due to PE and/or DVT or unexplained, and any important change in therapeutic management of thrombotic events); coagulation markers: plasma D-dimer (fibrin fragment, released in process of thrombolysis; measure for ongoing thrombosis) and TAT (Thrombin-Antithrombin Complex) concentrations during the study treatment. • Safety

[2] = tested on: patients with confirmed symptomatic proximal DVT; experiment: Tolerability: adverse events, laboratory parameters, vital signs, phase II study
From the text: as §1, §2
Secondary efficacy parameters: (serious) adverse events, laboratory parameters (hematology, biochemistry, coagulation status, platelet counts), and vital signs (blood pressure, heart rate, body weight).

[3] = tested on: patients with confirmed symptomatic proximal DVT; experiment: Bleeding events during randomized treatment, phase II study
From the text: as §1, §2
Primary safety parameters: incidence of major bleeding and decreased platelet count.

[4] = tested on: patients with confirmed symptomatic proximal DVT; experiment: Change in thrombotic burden assessed by central adjudication committee (CUS and PLS vs baseline), phase II study
From the text: as §1, §2
Primary efficacy parameter: change in thrombotic burden as assessed by the central adjudication committee using a 3-point ordinal outcome scale for the comparison of CUS and PLS (Perfusion Lung Scan) after 12 weeks of randomized treatment with baseline measurements (i.e. deterioration, normalization, or no relevant change) including a supplementary analysis on substantial improvement.
as §3

[5] = Plasma concentrations / population pharmacokinetics of SanOrg34006, phase II study
Method: The secondary objective was to assess population pharmacokinetics of SanOrg34006.
Plasma concentrations of SanOrg34006 were assessed within 48 h prior to the administration of SanOrg34006 in Weeks 2, 4 and 7. In addition during Week 7 within the time frames 0.5-2 h, 2-6 h, 6-48 h and 120-168 h post dose. In a subset of patients a more extensive sampling scheme was applied with pre-dose samples before each administration and the serial scheme for Week 7 also applied to Week 1 and 12.

[6] = SanOrg34006 2.5 mg SC once weekly, 12 weeks, ITT (N = 125)
[7] = SanOrg34006 5 mg SC once weekly, 12 weeks, ITT (N = 128)
[8] = SanOrg34006 7.5 mg SC once weekly, 12 weeks, ITT (N = 118)
[9] = SanOrg34006 10 mg SC once weekly, 12 weeks, ITT (N = 119)
[10] = Week 12 vs first administration
[11] = oral warfarin, 12-week course, ITT (N = 124)
[12] = oral warfarin, all patients with randomized treatment (N = 132)

CO[C@H]1O[C@H](COS(=O)(=O)O)[C@@H](O[C@@H]2O[C@@H](C(=O)O)[C@@H](O[C@H]3O[C@H](COS(=O)(=O)O)[C@@H](O[C@@H]4O[C@H](C(=O)O)[C@@H](O[C@H]5O[C@H](COS(=O)(=O)O)[C@@H](OC)[C@H](OC)[C@H]5OC)[C@H](OC)[C@H]4OC)[C@H](OS(=O)(=O)O)[C@H]3OS(=O)(=O)O)[C@H](OC)[C@H]2OC)[C@H](OS(=O)(=O)O)[C@H]1OS(=O)(=O)O [SanOrg34006, methyl O-(2,3,4-tri-O-methyl-6-O-sulfo-α-D-glucopyranosyl)-(1→4)-O-(2,3-di-O-methyl-β-D-glucopyranosyluronic acid)-(1→4)-O-(2,3,6-tri-O-sulfo-α-D-glucopyranosyl)-(1→4)-O-(2,3-di-O-methyl-α-L-idopyranosyluronic acid)-(1→4)-2,3,6-tri-O-sulfo-α-D-glucopyranoside]
No fatal or non-fatal recurrent DVT, symptomatic PE or unexplained death (composite clinical outcome) [1, 6]: 125 (100.0) n (%) | Yes: fatal or non-fatal recurrent DVT, symptomatic PE or unexplained death (composite clinical outcome) [1, 6]: 0 (0.0) n (%) | No fatal or non-fatal recurrent DVT, symptomatic PE or unexplained death (composite clinical outcome) [1, 7]: 126 (98.4) n (%) | Yes: fatal or non-fatal recurrent DVT, symptomatic PE or unexplained death (composite clinical outcome) [1, 7]: 2 (1.6) n (%) | No fatal or non-fatal recurrent DVT, symptomatic PE or unexplained death (composite clinical outcome) [1, 8]: 118 (100.0) n (%) | Yes: fatal or non-fatal recurrent DVT, symptomatic PE or unexplained death (composite clinical outcome) [1, 8]: 0 (0.0) n (%) | No fatal or non-fatal recurrent DVT, symptomatic PE or unexplained death (composite clinical outcome) [1, 9]: 116 (97.5) n (%) | Yes: fatal or non-fatal recurrent DVT, symptomatic PE or unexplained death (composite clinical outcome) [1, 9]: 3 (2.5) n (%) | tolerability in terms of adverse events (other than bleeding events), laboratory parameters, and vital signs ([2]; in vivo): generally well tolerated | dose group outcome under stopping rule for major bleedings ([3]; in vivo): prematurely discontinued | Deterioration, overall change in thrombotic burden (2-point scale) [4, 6]: 6 (4.8) n (%) | Deterioration, overall change in thrombotic burden (3-point scale) [4, 6]: 6 (4.8) n (%) | No Deterioration, overall change in thrombotic burden (2-point scale) [4, 6]: 119 (95.2) n (%) | No Relevant Change, overall change in thrombotic burden (3-point scale) [4, 6]: 87 (69.6) n (%) | Normalization, overall change in thrombotic burden (3-point scale) [4, 6]: 32 (25.6) n (%) | Deterioration, overall change in thrombotic burden (2-point scale) [4, 7]: 8 (6.3) n (%) | Deterioration, overall change in thrombotic burden (3-point scale) [4, 7]: 8 (6.3) n (%) | No Deterioration, overall change in thrombotic burden (2-point scale) [4, 7]: 120 (93.8) n (%) | No Relevant Change, overall change in thrombotic burden (3-point scale) [4, 7]: 89 (69.5) n (%) | Normalization, overall change in thrombotic burden (3-point scale) [4, 7]: 31 (24.2) n (%) | Deterioration, overall change in thrombotic burden (2-point scale) [4, 8]: 8 (6.8) n (%) | Deterioration, overall change in thrombotic burden (3-point scale) [4, 8]: 8 (6.8) n (%) | No Deterioration, overall change in thrombotic burden (2-point scale) [4, 8]: 110 (93.2) n (%) | No Relevant Change, overall change in thrombotic burden (3-point scale) [4, 8]: 81 (68.6) n (%) | Normalization, overall change in thrombotic burden (3-point scale) [4, 8]: 29 (24.6) n (%) | Deterioration, overall change in thrombotic burden (2-point scale) [4, 9]: 15 (12.6) n (%) | Deterioration, overall change in thrombotic burden (3-point scale) [4, 9]: 15 (12.6) n (%) | No Deterioration, overall change in thrombotic burden (2-point scale) [4, 9]: 104 (87.4) n (%) | No Relevant Change, overall change in thrombotic burden (3-point scale) [4, 9]: 74 (62.2) n (%) | Normalization, overall change in thrombotic burden (3-point scale) [4, 9]: 30 (25.2) n (%) | efficacy compared with warfarin ([4]; SanOrg34006 doses tested): No differences in efficacy | dose-response relationship for primary and secondary efficacy endpoints ([4]; tested doses 2.5-10 mg): No statistically significant dose-response relationship | plasma concentrations relative to levels associated with an increased bleeding risk ([5]; 2.5 mg SanOrg34006): remained below the levels associated with an increased bleeding risk | share of patient population with plasma levels 'too low' in terms of the ACCP guidelines ([5]; 2.5 mg dose group): 75% | dose proportionality of pharmacokinetics ([5]; 2.5-10 mg once weekly): Dose-proportional | AUC values at steady state relative to first administration [5, 10]: twice as high | trough concentrations at steady state relative to first administration [5, 10]: three times as high | anti-Xa activity corresponding with plasma trough levels ([5]; dose of 2.5 mg, once a week): 0.09-0.26 anti-Xa U/mL | plasma trough levels (Cmin) ([5]; dose of 2.5 mg, once a week): 126 ± 63 ng/mL | time at which steady state had been reached ([5]; once-weekly administration): Week 12

CC(=O)CC(c1ccccc1)c1c(O)c2ccccc2oc1=O (centres unmarked) [Warfarin, warfarin, reference compound]
Yes: fatal or non-fatal recurrent DVT, symptomatic PE or unexplained death (composite clinical outcome) [1, 11]: 2 (1.6) n (%) | tolerability in terms of adverse events (other than bleeding events), laboratory parameters, and vital signs ([2]; all SanOrg34006 doses, warfarin): generally well tolerated | Any Bleeding during randomized treatment [3, 12]: 11 (8.3) n (%) | Major Bleeding during randomized treatment [3, 12]: 1 (0.8) n (%) | No Major Bleeding during randomized treatment [3, 12]: 131 (99.2) n (%) | Deterioration, overall change in thrombotic burden (2-point scale) [4, 11]: 9 (7.3) n (%) | Deterioration, overall change in thrombotic burden (3-point scale) [4, 11]: 9 (7.3) n (%) | No Deterioration, overall change in thrombotic burden (2-point scale) [4, 11]: 115 (92.7) n (%) | No Relevant Change, overall change in thrombotic burden (3-point scale) [4, 11]: 84 (67.7) n (%) | Normalization, overall change in thrombotic burden (3-point scale) [4, 11]: 31 (25.0) n (%)
